Assay [1] addresses T1, influenza A virus (IAV) PA-Nter fragment (amino acids 1-209) (Influenza A virus, UniProt P31343).
T1 construct: PA-Nter fragment (amino acids 1-209); made in house
Briefly: FRET endonuclease activity assay. The following applies: PA-Nter 0.5 μM, 1.6 μM RNA substrate. Format: biochemical.

Assay [2] relates to influenza A virus A/Aichi/2/68 (H3N2) on MDCK cells. Put plainly: Cytopathic effect (CPE) assay. Format: cell-based. The following applies: Influenza A virus, 48 hrs. (In general: Protection from cytopathic effect is a common read-out in antiviral testing.)
The target of assay [3] is whole RNP complex of IAV strain A/PR/8/34 (Influenza A virus, UniProt P03433). Briefly: Transcription assay (TA assay). Format: biochemical. The following applies: RNPs of A/PR/8/34, capped RNA substrate.

Usually IC50 stands for the concentration needed to halve the response being measured. The low end stands for inhibition by little substance, the high end for a need for much substance. Take `CC(C)N1CCn2c(CNC(=O)c3ccc(C(F)(F)F)cc3)cc(=O)c(O)c2C1=O`: the values for the IC50 in assay [1] and in assay [2] (the 1st table) were 9450 nM and > 50000 nM, respectively. As for `CC(C)N1CCn2c(CNC(=O)CC3CC3)cc(=O)c(O)c2C1=O`, the IC50 in assay [1] is 300 nM; in assay [2] (the 1st table), > 50000 nM. As to `CC(C)N1CCn2c(CN(Cc3cccc(Cl)c3)C3CC3)cc(=O)c(O)c2C1=O`, the IC50 in assay [3] was 171 nM; in assay [2] (the 2nd table), > 50000 nM. With `CC(C)N1CCn2c(CNC3CCCCC3)cc(=O)c(O)c2C1=O`, the IC50 in assay [1] was 497 nM; in assay [2] (the 1st table) it was > 50000 nM. Consider `CCCN(Cc1cc(=O)c(O)c2n1CCN(C(C)C)C2=O)C1(c2ccccc2)CCCC1`, for which the figures for the IC50 in assay [3] and in assay [2] (the 2nd table) were 870 nM and > 50000 nM, respectively.

With `CC(C)N1CCn2c(CN(Cc3cccc4ccccc34)C3CC3)cc(=O)c(O)c2C1=O`, the IC50 in assay [2] (the 1st table) is > 50000 nM. As for `CC(=O)N(Cc1ccccc1)Cc1cc(=O)c(O)c2n1CCN(C(C)C)C2=O`, the IC50 in assay [1] was 44 nM; in assay [2] (the 1st table), > 50000 nM.

In the case of `Cc1ccc(S(=O)(=O)NCc2cc(=O)c(O)c3n2CCN(C(C)C)C3=O)cc1`, the figures for the IC50 in assay [1] and in assay [2] (the 1st table) were 203 nM and > 50000 nM, respectively.

For `CC(C)N1CCn2c(CN(Cc3ccc(-c4ccccc4)cc3)C3CC3)cc(=O)c(O)c2C1=O`, the IC50 in assay [3] is 5310 nM; in assay [2] (the 2nd table) it was > 50000 nM. In the case of `CC(C)N1CCn2c(CN(Cc3cccc(-c4ccccc4)c3)C3CC3)cc(=O)c(O)c2C1=O`, the values for the IC50 in assay [3] and in assay [2] (the 2nd table) were 533 nM and > 50000 nM, respectively. Turning to `CC(C)N1CCn2c(CNC(=O)CC(F)(F)F)cc(=O)c(O)c2C1=O`, the IC50 was 320 nM in assay [1] and > 50000 nM in assay [2] (the 1st table). Taken in the same sequence, the figures for `CC(C)N1CCn2c(CNS(=O)(=O)c3ccc(Cl)cc3Cl)cc(=O)c(O)c2C1=O` were 144 nM and > 50000 nM. Taken in the same sequence, the figures for `Cc1ccccc1S(=O)(=O)NCc1cc(=O)c(O)c2n1CCN(C)C2=O` were 48 nM and > 50000 nM.

Consider `CCCN(Cc1cc(=O)c(O)c2n1CCN(C(C)C)C2=O)C(C)=O`, for which, in assay [2] (the 1st table), the IC50 was > 50000 nM. Regarding `CC(C)N1CCn2c(CNS(=O)(=O)c3cn(C)cn3)cc(=O)c(O)c2C1=O`, the IC50 was 260 nM in assay [1] and > 50000 nM in assay [2] (the 1st table).

Regarding `CC(C)N1CCn2c(CNC3c4ccccc4CCc4ccccc43)cc(=O)c(O)c2C1=O`, the IC50 is 3620 nM in assay [1] and > 50000 nM in assay [2] (the 1st table). `CC(C)N1CCn2c(CNC(=O)c3ccccc3)cc(=O)c(O)c2C1=O`: the “FRET IC50” value in assay [1] is given as “insoluble”. For the same molecule, the IC50 in assay [2] (the 1st table) is > 50000 nM.

For `CC(C)N1CCn2c(CN(C)Cc3ccc(-c4ccccc4)cc3)cc(=O)c(O)c2C1=O`, the IC50 was 11700 nM in assay [3] and > 50000 nM in assay [2] (the 2nd table). With `CC(C)N1CCn2c(CNC(=O)CC(C)(C)C)cc(=O)c(O)c2C1=O`, the values for the IC50 in assay [1] and in assay [2] (the 1st table) were 380 nM and > 50000 nM, respectively. The matching figures for `CC(C)N1CCn2c(CNS(=O)(=O)c3cccc4ccccc34)cc(=O)c(O)c2C1=O`: 124 nM and > 50000 nM. Taken in the same sequence, the figures for `CC(C)N1CCn2c(CNS(=O)(=O)c3ccccc3)cc(=O)c(O)c2C1=O` were 130 nM and > 50000 nM. Consider `Cc1noc(C)c1S(=O)(=O)NCc1cc(=O)c(O)c2n1CCN(C(C)C)C2=O`, for which the IC50 in assay [1] is 182 nM; in assay [2] (the 1st table), > 50000 nM. The matching figures for `CC(C)CC(=O)N(Cc1cc(=O)c(O)c2n1CCN(C(C)C)C2=O)C1CCCCC1`: 469 nM and > 50000 nM.

For the molecule `CN1CCn2c(CNS(=O)(=O)c3ccccc3)cc(=O)c(O)c2C1=O`, the IC50 in assay [1] is 27 nM; in assay [2] (the 1st table), > 50000 nM. Taken in the same sequence, the figures for `CC(C)N1CCn2c(CN(C)S(=O)(=O)c3ccccc3)cc(=O)c(O)c2C1=O` were 200 nM and > 50000 nM. Regarding `CC(C)N1CCn2c(CNS(=O)(=O)c3ccc(C#N)cc3)cc(=O)c(O)c2C1=O`, the figures for the IC50 in assay [1] and in assay [2] (the 1st table) were 322 nM and > 50000 nM, respectively.

On to `CCCN(Cc1cc(=O)c(O)c2n1CCN(C(C)C)C2=O)C(=O)c1ccccc1`, for which the IC50 in assay [2] (the 1st table) is > 50000 nM. `CC(C)N1CCn2c(CNC(=O)C3(c4ccc(Cl)cc4)CCCC3)cc(=O)c(O)c2C1=O`: the IC50 was 840 nM in assay [1] and > 50000 nM in assay [2] (the 1st table). The matching figures for `CC(C)N1CCn2c(CNC(=O)[C@]34C[C@H]5C[C@H](C[C@H](C5)C3)C4)cc(=O)c(O)c2C1=O`: 1430 nM and > 50000 nM.

`CC(C)N1CCn2c(CNC(=O)C3CCCCC3)cc(=O)c(O)c2C1=O`: the results for the IC50 in assay [1] and in assay [2] (the 1st table) were 360 nM and > 50000 nM, respectively. For the molecule `CC(=O)N(Cc1cc(=O)c(O)c2n1CCN(C(C)C)C2=O)C1CCCCC1`, the figures for the IC50 in assay [1] and in assay [2] (the 1st table) were 48 nM and > 50000 nM, respectively. On to `CC(C)N1CCn2c(CNS(=O)(=O)Cc3ccc(Cl)cc3)cc(=O)c(O)c2C1=O`, for which the IC50 in assay [1] was 603 nM; in assay [2] (the 1st table), > 50000 nM. Turning to `CC(C)N1CCn2c(CNC3(c4ccccc4)CCCC3)cc(=O)c(O)c2C1=O`, the IC50 in assay [2] (the 1st table) is > 50000 nM. In the case of `CC(C)N1CCn2c(CN(C(=O)Cc3ccc(F)cc3F)C3CCCCC3)cc(=O)c(O)c2C1=O`, the IC50 was 580 nM in assay [1] and > 50000 nM in assay [2] (the 1st table).

Consider `CC(C)N1CCn2c(CNC(c3ccccc3)c3ccccc3)cc(=O)c(O)c2C1=O`, for which the results for the IC50 in assay [1] and in assay [2] (the 1st table) were 1130 nM and > 50000 nM, respectively. Taken in the same sequence, the figures for `CC(C)N1CCn2c(CN(Cc3ccccc3)C(=O)c3ccccc3)cc(=O)c(O)c2C1=O` were 315 nM and > 50000 nM. Consider `Cc1cccc(C(=O)NCc2cc(=O)c(O)c3n2CCN(C(C)C)C3=O)c1`, for which the IC50 was 1070 nM in assay [1] and > 50000 nM in assay [2] (the 1st table). For the molecule `CCCN(Cc1cc(=O)c(O)c2n1CCN(C(C)C)C2=O)C(=O)C1CC1`, the IC50 in assay [2] (the 1st table) is > 50000 nM. `CC(C)N1CCn2c(CNS(=O)(=O)c3ccc(Cl)cc3F)cc(=O)c(O)c2C1=O`: the IC50 in assay [1] is 223 nM; in assay [2] (the 1st table) it was > 50000 nM. `CC(C)N1CCn2c(CNS(=O)(=O)c3cccc(Cl)c3)cc(=O)c(O)c2C1=O`: the IC50 in assay [1] is 62 nM; in assay [2] (the 1st table), > 50000 nM. In the case of `CC(C)N1CCn2c(CN(Cc3ccccc3-c3ccccc3)C3CC3)cc(=O)c(O)c2C1=O`, the IC50 in assay [2] (the 1st table) was > 50000 nM. For `CC(C)N1CCn2c(CNS(=O)(=O)C3CC3)cc(=O)c(O)c2C1=O`, the results for the IC50 in assay [1] and in assay [2] (the 1st table) were 181 nM and > 50000 nM, respectively. Turning to `CC(C)N1CCn2c(CNC(=O)C3CC(F)(F)C3)cc(=O)c(O)c2C1=O`, the IC50 in assay [2] (the 1st table) was > 50000 nM. Turning to `CC(C)N1CCn2c(CNC(=O)c3ccc(Cl)cc3)cc(=O)c(O)c2C1=O`, the IC50 in assay [1] is 245 nM; in assay [2] (the 1st table), > 50000 nM. For the molecule `CC(C)N1CCn2c(CN(Cc3ccccc3)Cc3ccccc3)cc(=O)c(O)c2C1=O`, the IC50 is 1550 nM in assay [1] and > 50000 nM in assay [2] (the 1st table). Taken in the same sequence, the figures for `CC(C)N1CCn2c(CNS(=O)(=O)c3ccccc3Cl)cc(=O)c(O)c2C1=O` were 87 nM and > 50000 nM. Take `CC(C)N1CCn2c(CNC(=O)C34CCC(CO)(CC3)CC4)cc(=O)c(O)c2C1=O`: the IC50 in assay [1] was 1870 nM; in assay [2] (the 1st table) it was > 50000 nM. The matching figures for `CC(C)N1CCn2c(CNS(=O)(=O)Cc3ccccc3)cc(=O)c(O)c2C1=O`: 187 nM and > 50000 nM. The matching figures for `CN1CCn2c(CNS(=O)(=O)c3cccc(Cl)c3)cc(=O)c(O)c2C1=O`: 82 nM and > 50000 nM.

For the molecule `CC(C)N1CCn2c(CNC(=O)CCC(F)(F)F)cc(=O)c(O)c2C1=O`, the figures for the IC50 in assay [1] and in assay [2] (the 1st table) were 250 nM and > 50000 nM, respectively. The matching figures for `CC(C)N1CCn2c(CNS(=O)(=O)c3c(Cl)cccc3Cl)cc(=O)c(O)c2C1=O`: 119 nM and > 50000 nM. Take `CC(C)N1CCn2c(CNC(=O)c3cccn3C)cc(=O)c(O)c2C1=O`: the IC50 was 310 nM in assay [1] and > 50000 nM in assay [2] (the 1st table). The matching figures for `CC(C)N1CCn2c(CNC(=O)c3ccc(C#N)cc3)cc(=O)c(O)c2C1=O`: 400 nM and > 50000 nM. On to `CCCN(Cc1cc(=O)c(O)c2n1CCN(C(C)C)C2=O)C(=O)C1CCCCC1`, for which, in assay [2] (the 1st table), the IC50 is > 50000 nM. Regarding `CC(C)CS(=O)(=O)NCc1cc(=O)c(O)c2n1CCN(C(C)C)C2=O`, the results for the IC50 in assay [1] and in assay [2] (the 1st table) were 211 nM and > 50000 nM, respectively. Taken in the same sequence, the figures for `CC(C)N1CCn2c(CNS(=O)(=O)c3cccc(F)c3)cc(=O)c(O)c2C1=O` were 153 nM and > 50000 nM. As to `CC(C)N1CCn2c(CN(Cc3ccccc3)c3ccccc3)cc(=O)c(O)c2C1=O`, in assay [1], the IC50 came out at 1180 nM. On to `CCCN(Cc1ccccc1)Cc1cc(=O)c(O)c2n1CCN(C(C)C)C2=O`, for which the IC50 in assay [1] was 390 nM; in assay [2] (the 1st table), > 50000 nM.

Take `CC(C)N1CCn2c(CNS(=O)(=O)c3ccc(Cl)cc3)cc(=O)c(O)c2C1=O`: the IC50 in assay [1] was 209 nM; in assay [2] (the 1st table), > 50000 nM.

For the molecule `CC(C)N1CCn2c(CNC(=O)CC34C[C@H]5C[C@@H](C3)C[C@@H](C4)C5)cc(=O)c(O)c2C1=O`, the results for the IC50 in assay [1] and in assay [2] (the 1st table) were 1680 nM and > 50000 nM, respectively. Take `CN1CCn2c(CNS(=O)(=O)c3ccc(Cl)cc3)cc(=O)c(O)c2C1=O`: the values for the IC50 in assay [1] and in assay [2] (the 1st table) were 130 nM and > 50000 nM, respectively. `CC(C)N1CCn2c(CNC(=O)C3CC3)cc(=O)c(O)c2C1=O`: the IC50 is 350 nM in assay [1] and > 50000 nM in assay [2] (the 1st table). The matching figures for `CC(C)N1CCn2c(CN)cc(=O)c(O)c2C1=O`: 493 nM and > 50000 nM. In the case of `CC(C)N1CCn2c(CN(C)C)cc(=O)c(O)c2C1=O`, the IC50 is 92 nM in assay [1] and > 50000 nM in assay [2] (the 1st table). On to `CC(C)N1CCn2c(CNS(=O)(=O)c3ccccc3F)cc(=O)c(O)c2C1=O`, for which the IC50 in assay [1] is 104 nM; in assay [2] (the 1st table), > 50000 nM. The matching figures for `CC(C)N1CCn2c(CNS(=O)(=O)N(C)C)cc(=O)c(O)c2C1=O`: 90 nM and > 50000 nM.
